Reference: patent US6613745B1, “Therapeutic molecules derived from snake venom” (National University of Singapore, priority 1997, dated 2003)
“Also recorded” adds a separate entry of the source. Peptide text beside a SMILES is read from it.

System: chick biventer muscle
Assay: Chick biventral experiment: contractile (twitch) responses evoked by electrical field stimulation
Parameters: species or system Gallus domesticus

Compound: C[C@@H](O)[C@H](NC(=O)[C@@H]1CCCN1C(=O)[C@H](Cc1ccccc1)NC(=O)[C@@H]1CCCN1C(=O)[C@@H](N)CC(N)=O)C(=O)N[C@@H](Cc1c[nH]c2ccccc12)C(=O)N[C@@H](CCCNC(=N)N)C(=O)N[C@@H](CCCCN)C(=O)N[C@@H](CCCNC(=N)N)C(=O)N1CCC[C@H]1C(=O)NCC(=O)O [synthesized peptide, Asn-Pro-Phe-Pro-Thr-Trp-Arg-Lys-Arg-Pro-Gly] (H-NPFPTWRKRPG-OH)
- contractile (twitch) response of chick biventer evoked by electrical field stimulation (10 μg peptide added, EFS 25 V, 5 Hz×10s, 1 ms pulse width, every 100s, FIG. 1, listed as analgesic peptide): no change; also recorded: no effect
- neurotoxic effect on the neuromuscular junction (10 μg peptide, concluded from FIG. 1): no neurotoxic effect
